# “And” between values parts separate entries of the source, which are not always exact repeats. Equal values may be shown once. Read-outs that look alike come from different tables or passages of the source.
# Tests used:
# [1] = system: E. coli TOP10 pCR2.1-(PNDM-1-blaNDM-1-bleMBL); test: Preliminary MIC of imipenem with DMPS, broth microdilution; assay type: cell-based; settings: MIC values of imipenem; 0 to 30 mM of DMPS; zinc-complemented M9CA medium; data not shown
# [2] = in vivo, cited from earlier work
# [3] = biological target: IMP-1 (Serratia marcescens, UniProt P52699); test: biochemical
# [4] = biological target: NDM-1 (Klebsiella pneumoniae, UniProt C7C422); test: biochemical
# [5] = biological target: VIM-1 (Pseudomonas aeruginosa, UniProt A0A0F7KYQ8); test: biochemical
# [6] = biological target: NDM-4 (Escherichia coli, UniProt H6WZS9); test: In-vitro inhibition of purified metallo-ß-lactamase, UV spectrophotometry
# [7] = biological target: KPC-3 (Klebsiella pneumoniae, UniProt Q9F663, H272Y); test: In-vitro inhibition of purified enzyme, non-metallo-enzyme negative control
# [8] = system: A. baumannii IMP-4; test: MIC of carbapenems with or without DMPS; assay type: cell-based; settings: Acinetobacter baumannii, IMP4, carbapenem without DMPS, Zn 5mg/L
# Method: (§1) DMPS was evaluated as inhibitor of MBLs using a panel of strains producing the most clinically significant carbapenemases of the metallo-enzyme group. Minimum inhibitory concentrations (MICs) of carbapenems were determined in-vitro with strains (reference and clinical) producing main types of class B carbapenemases which are IMP, VIM, NDM, GIM and SPM with or without DMPS at various concentrations. […] The studied strains were clinical isolates (to mirror multidrug resistance in clinical isolates) for which a precise ß-lactamase gene content is known (Table 1). The strains were NDM, VIM-, IMP, SPM and GIM and producers as well as control of a non-MBL producer (OXA-48). The selected concentration of DMPS was 1-fold, […] and 30-fold (3 mM) that of the human peak serum concentration after a single IV dose of DMPS (Aposhian,1983).
# (§2) A 100 mM DMPS stock solution (Sigma Aldrich, France) (pH 5.0) was prepared in 0.2 M NaOH as recommended (Maiorino et al. 1990) and pH was neutralized to pH 7.0 with NaHCO3 Na2Ca-EDTA (Sigma Aldrich, France) dissolved in water.
# [9] = system: A. baumannii NDM-1; test: MIC of carbapenems with or without DMPS; assay type: cell-based
# Method: as §1, §2
# [10] = system: C. freundii VIM-2; test: MIC of carbapenems with or without DMPS; assay type: cell-based; settings: Zn 5mg/L
# Method: as §1, §2
# [11] = system: E. cloacae GIM-1; test: MIC of carbapenems with or without DMPS; assay type: cell-based; settings: Zn 5mg/L
# Method: as §1, §2
# [12] = system: E. coli NDM-1; test: MIC of carbapenems with or without DMPS; assay type: cell-based; settings: Zn 5mg/L
# Method: as §1, §2
# [13] = system: E. coli NDM-4; test: MIC of carbapenems with or without DMPS; assay type: cell-based; settings: Zn 5mg/L
# Method: as §1, §2
# [14] = system: E. coli NDM-5; test: MIC of carbapenems with or without DMPS; assay type: cell-based; settings: Zn 5mg/L
# Method: as §1, §2
# [15] = system: K. pneumoniae IMP-4; test: MIC of carbapenems with or without DMPS; assay type: cell-based; settings: Zn 5mg/L
# Method: as §1, §2
# [16] = system: K. pneumoniae IMP-8; test: MIC of carbapenems with or without DMPS; assay type: cell-based; settings: Zn 5mg/L
# Method: as §1, §2
# [17] = system: K. pneumoniae NDM-1; test: MIC of carbapenems with or without DMPS; assay type: cell-based; settings: Zn 5mg/L
# Method: as §1, §2
# [18] = system: K. pneumoniae VIM-4; test: MIC of carbapenems with or without DMPS; assay type: cell-based; settings: Zn 5mg/L
# Method: as §1, §2
# [19] = system: P. aeruginosa GIM-1; test: MIC of carbapenems with or without DMPS; assay type: cell-based; settings: Zn 5mg/L
# Method: as §1, §2
# [20] = system: P. aeruginosa IMP-13; test: MIC of carbapenems with or without DMPS; assay type: cell-based
# Method: as §1, §2
# [21] = system: P. aeruginosa NDM1; test: MIC of carbapenems with or without DMPS; assay type: cell-based; settings: carbapenem without DMPS, Zn 5mg/L
# Method: as §1, §2
# [22] = system: P. aeruginosa SPM1; test: MIC of carbapenems with or without DMPS; assay type: cell-based; settings: Pseudomonas aeruginosa, carbapenem without DMPS, Zn 5mg/L
# Method: as §1, §2
# [23] = system: P. aeruginosa VIM-1; test: MIC of carbapenems with or without DMPS; assay type: cell-based
# Method: as §1, §2
# [24] = system: P. aeruginosa VIM-2; test: MIC of carbapenems with or without DMPS; assay type: cell-based; settings: Zn 5mg/L
# Method: as §1, §2
# [25] = system: P. putida VIM-2; test: MIC of carbapenems with or without DMPS; assay type: cell-based; settings: Pseudomonas putida, VIM2
# Method: as §1, §2
# [26] = system: K. pneumoniae OXA-48; test: MIC of carbapenems with or without DMPS (non-MBL control); assay type: cell-based; settings: K. pneumoniae OXA-48 (control), carbapenem without DMPS, Zn 5mg/L
# Method: as §1, §2
smiles,measurement,setting,value
O=S(=O)([O-])CC(S)CS.[Na+] (racemic) [DMPS],maximal inhibition efficiency (DMPS concentration),[1],50 mM
same,serum concentration,[2]; iv,ca. 110 µM
same,elimination,[2],mostly eliminated by urines
same,IC50,[3],70 µM
same,IC50,[4],80 µM
same,IC50,[5],180 µM
same,IC50,[6],110 µM
same,IC50,[7],> 10000 µM
"C[C@@H](O)[C@H]1C(=O)N2C(C(=O)O)=C(SCCN=CN)C[C@H]12 [IPM, imipenem]",MIC,[8],64 µg/mL
same,MIC,"[9]; Acinetobacter baumannii, NDM1",128 µg/mL
same,MIC,"[10]; Citrobacter freundii, VIM2, carbapenem without DMPS, read-out: MIC",2 µg/mL
same,MIC,"[11]; Enterobacter cloacae, GIM1, carbapenem without DMPS, read-out: MIC",8 µg/mL
same,MIC,"[12]; Escherichia coli, NDM1, carbapenem without DMPS, read-out: MIC",8 µg/mL
same,MIC,"[13]; Escherichia coli, NDM4, carbapenem without DMPS, read-out: MIC",64 µg/mL
same,MIC,"[14]; Escherichia coli, NDM5, carbapenem without DMPS, read-out: MIC",64 µg/mL
same,MIC,"[15]; Klebsiella pneumoniae, IMP4, carbapenem without DMPS, read-out: MIC",16 µg/mL
same,MIC,"[16]; Klebsiella pneumoniae, IMP8, carbapenem without DMPS, read-out: MIC",8 µg/mL
same,MIC,"[17]; Klebsiella pneumoniae, NDM1, carbapenem without DMPS, read-out: MIC",64 µg/mL
same,MIC,"[18]; Klebsiella pneumoniae, VIM4, carbapenem without DMPS, read-out: MIC",64 µg/mL
same,MIC,"[19]; Pseudomonas aeruginosa, GIM1, carbapenem without DMPS, read-out: MIC",> 1020 µg/mL
same,MIC,"[20]; Pseudomonas aeruginosa, IMP13",128 µg/mL
same,MIC,"[21]; Pseudomonas aeruginosa, read-out: MIC",1020 µg/mL
same,MIC,[22],1020 µg/mL
same,MIC,"[23]; Pseudomonas aeruginosa, VIM1",128 µg/mL
same,MIC,"[24]; Pseudomonas aeruginosa, VIM2, carbapenem without DMPS, read-out: MIC",1020 µg/mL
same,MIC,[25],128 µg/mL
same,MIC,"[26]; Klebsiella pneumoniae, OXA48, read-out: MIC",32 µg/mL
"C[C@@H](O)[C@H]1C(=O)N2C(C(=O)O)=C(S[C@@H]3CN[C@H](C(=O)N(C)C)C3)[C@H](C)[C@H]12 [MEM, meropenem]",MIC,"[9]; A. baumannii NDM-1, carbapenem without DMPS, Zn 5mg/L",256 µg/mL
same,MIC,[10]; carbapenem without DMPS,0.06 µg/mL
same,MIC,[11]; carbapenem without DMPS,16 µg/mL
same,MIC,[12]; carbapenem without DMPS,32 µg/mL and 16 µg/mL
same,MIC,[13]; carbapenem without DMPS,64 µg/mL
same,MIC,[14]; carbapenem without DMPS,64 µg/mL
same,MIC,[15]; carbapenem without DMPS,16 µg/mL
same,MIC,[16]; carbapenem without DMPS,2 µg/mL
same,MIC,[17]; carbapenem without DMPS,64 µg/mL
same,MIC,[18]; carbapenem without DMPS,32 µg/mL
same,MIC,[19]; carbapenem without DMPS,"1,024 µg/ml"
same,MIC,"[20]; P. aeruginosa IMP-13, carbapenem without DMPS, Zn 5mg/L",64 µg/mL
same,MIC,[21],256 µg/mL
same,MIC,"[23]; P. aeruginosa VIM-1, carbapenem without DMPS, Zn 5mg/L",256 µg/mL
same,MIC,[24]; carbapenem without DMPS,"1,024 µg/ml"
same,MIC,[26],32 µg/mL
